Experimental data: patent publication US20130253048A1, “Pharmaceutical Composition for Promoting Osteogenesis Containing Axial-equatorial Aryl-oriented Furofuran-type Lignan, and Pharmaceutical Preparation, Functional Food Product, and Health Food Product Comprising Composition” (ERINA CO., INC., priority 2010, published 2013)
Marks after values point to notes of the source that are not given here.

Tests used:
[1] = test system: MC3T3-E1 cells; experiment: Calcification of the osteoblast (ALP activity, alizarin red) in MC3T3-E1; assay type: cell-based, mouse
Experimental: MC3T3-E1 cells as the same as those used in Example 4 were used. In addition, 50 μg/ml of L-ascorbic acid and 10 mM β-Glycerophosphate (both from Sigma-Aldrich Japan Co. LLC.) were added to the basal medium employed in the Example 3 was used. Fargesin prepared in the Example 1 was added to the medium the concentration at 2 to 80 μM.
MC3T3-E1 was inoculated in each well of the 96 well plates at 4,000 cells/well, and then the plate was pre-cultured by using only basal mediums under the condition of 5% CO2 and 37 degree centigrade for 2 days. After that, the medium was exchanged to the medium containing 50 μg/ml of L-ascorbic acid, 10 mM β-Glycerophosphate, and fargesin, and it was incubated under the condition of 5% CO2 and 37 degree centigrade for 5 days. After the termination of the incubation, the measurement of ALP activity and the differentiated cells were observed as the same as those in Example 3.
Mineral deposition was stained by using 1% alizarin red observed as the bone calcification (Wako Pure Chemical Industries, Ltd.) according to the conventional method, and then it was observed as the bone calcification.

[2] = test system: ovariectomized mouse (OVX mouse); experiment: Bone formation in ovariectomized mouse (OVX mouse), dosing after bone resorption induction period, femur pQCT; assay type: in vivo; settings: for Bone strength (polar coordinates torsion strength): compared to Control OVX group; for Bone density of cancellous bone, relative value / Bone density of cortical bone, relative value / Bone density of the whole bones, relative value: 5M Sham = 100; for Bone density of cancellous bone / Bone density of cortical bone / Bone thickness of cortical bone / Cross section area of cortical bone / Perimeter of cortical bone adventitia / Perimeter of cortical bone lining membrane / Bone density of the whole bones: OVX mice, 3 months dosing after 2-month induction; for Bone density of the whole bones: right femur, pQCT
Experimental: Four-week-old female Slc; ddy mice (Japan SLC, Inc.) were purchased, and they were divided into 8 groups without acclimate keeping (6 mice per group). They were anesthetized by using 50 mg/kg of pentobarbital to be ovariectomized (it is referred to as “OVX” herein below) or to have Sham operation (it is referred to as “Sham” herein below) under the anesthesia which is given by intraperitoneal administration of 50 mg/kg of Somnopentyl (pentobarbital sodium).
From the second day of the ovariectomy (or Sham operation), each group was maintained under the condition of 12 hour light/dark cycle, 23±3 degree centigrade as the room temperature, and humidity 55±5% for 2 months as the bone resorption induction period. The animal bedding was exchanged twice a week and all fresh bedding was used at all times. CRF-1 (Oriental Yeast Co., Ltd.) as the feed and deionized water as drinking water were freely given.
After two month period from the test start, the bone resorption induction period, the test substance were given to each group at the amount shown in the following Table 7 for 3 month.
Ninety % of MeOH fraction (Shin-i) obtained in Example 1 and Fargesin (may refer to “Far” thereafter) were respectively dissolved into TD solution at the concentration shown in Table 7, and then they were administrated per os.
Human PTH (1-34) (herein below, it is sometimes referred to as “hPTH (1-34)”) were dissolved in distilled water at the concentration of 80 μg/kg/day, and it was administrated subcutaneously.
After 3 month from the administration start, the mice belonging to all of the groups were weighed. They were anesthetized by using diethylether, and were collected their blood from their hearts, and then they were died. Then, organs such as the uterus, the white adipose tissue (WAT), the brown adipose tissue (BAT), the liver, the spleen, and both left and right lower extremities were removed. The left and right lower extremities were separated into the femurs and the tibias, and they were stored in 70% EtOH under the room temperature.
The muscles were removed from the obtained femur (right), and then its bone density and the like were measured by using pQCT employed in Example 1 under the following conditions.
Recognition of contour (CONTMODE): 2 (auto search of ROI)
Recognition method of cancellous bone: Surface & Area
Ration of cancellous bone area to all of the cross section areas: 35%
CORTMODE used in CORTBD: 1* * Voxels not larger than the standard value for distinguishing the cortical bone from the cancellous bone (threshold: threshold) were omitted. Each tissue weight was also measured.
TH value used in CORTBD: 690
Among the all data of cancellous bone density obtained from pQCT, both of the highest and the lowest data were deleted to obtain the Median. As to the other parameters were treated as the same as this, the graph was made with N=6. Statistical analysis was performed by using the Dennett's two-sided t test.

[3] = test system: TRACP5b; experiment: Serum TRACP5b of OVX mice (bone metabolism marker); assay type: in vivo, mouse
Experimental: All obtained blood from the heart under diethyl ether anesthesia at dissection was stored at 4 degree centigrade for 24 hours. Then, the blood was centrifuged at 3,000 rpm (4,000×g) for 15 minutes to separate the sera.
According to the protocol of Mouse TRAP™ Assay (Immuno-diagnostic Systems Ltd, the United of Kingdom), TRACP5b in the obtained sera was determined.

[4] = test system: mouse monocyte macrophage type cells under RANKL stimulation; settings: cited from earlier work
[5] = 40 mg administration group p.o.

COc1ccc([C@@H]2OC[C@H]3[C@@H]2CO[C@@H]3c2ccc3c(c2)OCO3)cc1OC [fargesin, Fargesin]
Mineral deposition (calcification), alizarin red staining ([1]; 60 to 80 μM, MC3T3-E1): increased mineral deposition side
activity at 2 µM ([1]; Mus musculus, 120 h, 2 μM, MC3T3-E1 with L-ascorbic acid and β-Glycerophosphate, 5 days, negative control = 100): 93.3 ± 2.6%
activity at 6 µM ([1]; Mus musculus, 120 h, 6 μM, MC3T3-E1 with L-ascorbic acid and β-Glycerophosphate, 5 days, negative control = 100): 92.8 ± 1.6%
activity at 20 µM ([1]; Mus musculus, 120 h, 20 μM, MC3T3-E1 with L-ascorbic acid and β-Glycerophosphate, 5 days, negative control = 100): 107 ± 3.8%
activity at 60 µM ([1]; Mus musculus, 120 h, 60 μM, MC3T3-E1 with L-ascorbic acid and β-Glycerophosphate, 5 days, negative control = 100): 173 ± 13.7%
activity at 80 µM ([1]; Mus musculus, 120 h, 80 μM, MC3T3-E1 with L-ascorbic acid and β-Glycerophosphate, 5 days, negative control = 100): 172 ± 12.2%
Bone strength (polar coordinates torsion strength) ([2]; 2 mg administration group p.o.): significantly increased
Bone strength (polar coordinates torsion strength) [2, 5]: significantly increased
Bone density of cancellous bone, relative value ([2]; Far 2: 2 mg/kg/day p.o.): 54.9
Bone density of cortical bone, relative value ([2]; Far 2: 2 mg/kg/day p.o.): 92.7
Bone density of the whole bones, relative value ([2]; Far 2: 2 mg/kg/day p.o.): 81.4
Bone density of cancellous bone, relative value ([2]; Far 20: 20 mg/kg/day p.o.): 58.5
Bone density of cortical bone, relative value ([2]; Far 20: 20 mg/kg/day p.o.): 92.9
Bone density of the whole bones, relative value ([2]; Far 20: 20 mg/kg/day p.o.): 83.1
Bone density of cancellous bone, relative value ([2]; Far 40: 40 mg/kg/day p.o.): 79.2
Bone density of cortical bone, relative value ([2]; Far 40: 40 mg/kg/day p.o.): 90.4
Bone density of the whole bones, relative value ([2]; Far 40: 40 mg/kg/day p.o.): 85.7
Bone density of cancellous bone ([2]; Far 2: 2 mg/kg/day p.o.): 64.10 ± 25.48 mg/cm^2
Bone density of cortical bone ([2]; Far 2: 2 mg/kg/day p.o.): 911.65 ± 30.15 mg/cm^2
Bone thickness of cortical bone ([2]; Far 2: 2 mg/kg/day p.o.): 0.20 ± 0.03 mm
Cross section area of cortical bone ([2]; Far 2: 2 mg/kg/day p.o.): 1.46 ± 0.23 mm^2
Perimeter of cortical bone adventitia ([2]; Far 2: 2 mg/kg/day p.o.): 8.02 ± 0.26 mm
Perimeter of cortical bone lining membrane ([2]; Far 2: 2 mg/kg/day p.o.): 6.79 ± 0.19 mm
Bone density of the whole bones ([2]; Far 2: 2 mg/kg/day p.o.): 427.83 ± 36.00 mg/cm^2
Bone density of cancellous bone ([2]; Far 20: 20 mg/kg/day p.o.): 68.22 ± 21.67 mg/cm^2
Bone density of cortical bone ([2]; Far 20: 20 mg/kg/day p.o.): 914.57 ± 43.90 mg/cm^2
Bone thickness of cortical bone ([2]; Far 20: 20 mg/kg/day p.o.): 0.20 ± 0.03 mm
Cross section area of cortical bone ([2]; Far 20: 20 mg/kg/day p.o.): 1.48 ± 0.18 mm^2
Perimeter of cortical bone adventitia ([2]; Far 20: 20 mg/kg/day p.o.): 8.04 ± 0.55 mm
Perimeter of cortical bone lining membrane ([2]; Far 20: 20 mg/kg/day p.o.): 6.78 ± 0.68 mm
Bone density of the whole bones ([2]; Far 20: 20 mg/kg/day p.o.): 437.00 ± 49.48 mg/cm^2
Bone density of cancellous bone ([2]; Far 40: 40 mg/kg/day p.o.): 92.37 ± 41.29 mg/cm^2
Bone density of cortical bone ([2]; Far 40: 40 mg/kg/day p.o.): 889.97 ± 23.31 mg/cm^2
Bone thickness of cortical bone ([2]; Far 40: 40 mg/kg/day p.o.): 0.21 ± 0.02* mm
Cross section area of cortical bone ([2]; Far 40: 40 mg/kg/day p.o.): 1.56 ± 0.19* mm^2
Perimeter of cortical bone adventitia ([2]; Far 40: 40 mg/kg/day p.o.): 8.14 ± 0.39 mm
Perimeter of cortical bone lining membrane ([2]; Far 40: 40 mg/kg/day p.o.): 6.83 ± 0.38 mm
Bone density of the whole bones ([2]; Far 40: 40 mg/kg/day p.o.): 450.57 ± 33.72 mg/cm^2
level of TRACP5b in the sera [3, 5]: significantly decreased
level of TRACP5b in the sera ([3]; 2, 20, 40 mg/kg/day p.o.): dose-dependently decreased
phosphorylation of p38 and I-κB by RANKL stimulation ([4]; RANKL stimulation): inhibits the phosphorylation
tartrate-resistant acid phosphatase activities ([4]; mouse monocyte macrophage type cells under RANKL stimulation, or marrow monocytoid cells in culture): dose-dependently inhibits
